In publication PMC5244392, “Interspecies cathelicidin comparison reveals divergence in antimicrobial activity, TLR modulation, chemokine induction and regulation of phagocytosis” (Scientific Reports, 2017):

How the values were obtained:
[1] = tested on: E. coli O78; test: Bacterial growth delay (Bioscreen C), E. coli; assay type: cell-based, Escherichia coli; conditions: for Max: hours growth delay with 20 μM cathelicidin, E. coli, DMEM: DMEM + FCS
Experimental: (§1) E. coli O78 (Zoetis Animal Health, Kalamazoo, MI, USA), E. coli ATCC 25922, Staphylococcus aureus ATCC 29213, and methicillin resistant Staphylococcus aureus (MRSA) (WKZ-2, human clinical isolate) were grown overnight from a glycerol stock in Mueller Hinton Broth (MHB) (Becton Dickinson, USA). Before use, bacteria were grown to mid-log phase in MHB for 2 hours at 37 °C, 200 RPM. Murine RAW264.7 macrophages (ATCC-TIB-71) were obtained from the American Type Culture Collection (ATCC, Manassas, VA, USA) and cultured in DMEM (41966-029; Thermo Fisher Scientific, Waltham, MA, USA) supplemented with 10% FCS (Bodinco B.V., Alkmaar, the Netherlands) (DMEM + FCS) at 37 °C, 5.0% CO2. Cells were seeded in 96-wells plates at 5 × 10^5 cells/ml or 12-wells plates at 2 × 10^5/ml for adherence overnight prior to stimulation.
(§2) Peptides (0.63 to 40 μM) and bacteria mid-log cultures (2 * 10^6 CFU/ml) were prepared in MHB or DMEM + FCS and mixed (100 μl peptide + 100 μl bacterial culture) in a Bioscreen C analyzer plate (Oy Growth Curves Ab Ltd, Helsingfors, Finland). Plates were placed in a Bioscreen C analyzer (Oy Growth Curves Ab Ltd) and bacteria were grown for 16 h at 37 °C with 200 RPM. The OD was measured every 15 minutes using a wideband filter (450–580 nm) to measure bacterial growth. The time needed grow above an OD of 0.6 was determined for all concentrations. Activity of peptides was expressed as the Cmax, the concentration of peptide required to delay the growth for 10 h compared to the control. Or, for peptides with low activity (no Cmax), activity was expressed as the hours of growth delay at 20 μM. Unlike the classic MIC and MBC determination used in microbiology, this method also enabled comparison of peptides with low antibacterial activity.
(§3) Twelve cathelicidins from 6 different species were selected for this study, namely: human LL-37, murine CRAMP, dog K9CATH, equine CATH (eCATH)-1, -2 and -3, chicken CATH (chCATH)-1, -2, and -3, porcine PMAP-23 and -36 and PR-39 (Table 1). Antimicrobial activity against E. coli and MRSA was directly compared under standardized conditions in MHB, a medium optimized for bacterial growth. Bacterial growth delay was defined as the delay in hours for peptide-treated bacteria to reach an OD of 0.6, compared to the non-treated control. Cmax is the minimal concentration needed to delay growth for a minimum of 10 hours compared to the non-treated control (Table 1 and Fig. 1A).
(§4) Figure 1 Antibacterial activity of cathelicidins. E. coli and MRSA (1 × 10^6 CFU/ml) of were grown in MHB or DMEM ± FCS for 16 hours under constant shaking (200 RPM). Every 15 minutes the OD was measured. Growth delay was defined as the time needed for peptide-treated bacteria to grow above an OD of 0.6 compared to the control bacteria (no peptide added) (A). Cathelicidins were tested in different concentrations (0.31 μM, 0.63 μM, 1.25 μM, 2.5 μM, 5 μM, 10 μM, and 20 μM) to determine the antimicrobial activity in MHB against E. coli (B) or MRSA (C) and in more physiological medium DMEM + FCS (D,E). Results are presented as average +/− SEM (N = 4).

[2] = tested on: methicillin resistant Staphylococcus aureus (MRSA) (WKZ-2, human clinical isolate); test: Bacterial growth delay (Bioscreen C), MRSA; assay type: cell-based
Experimental: as §1, §2, §3, §4

[3] = tested on: RAW264.7 cells; test: Phagocytosis assay with fluorescent latex beads; assay type: cell-based, murine; conditions: latex beads 10 per cell, 30 min, peptide 0.31, 1.25 and 5 μM
Experimental: Red fluorescent (λex 575 nm and λem 610 nm) carboxylate-modified polystyrene latex beads (0.5 μm; Sigma Aldrich, St. Louis, MO, USA) were washed three times with PBS and resuspended in culture medium. Peptide dilutions were prepared in culture medium and added to RAW264.7 cells, directly followed by the latex beads (ratio 10 beads to 1 cell). Cells were incubated for 30 minutes at 37 °C, 5% CO2 (energy-dependent uptake) or 0 °C (non-specific adherence), after which cells were washed extensively with ice-cold PBS supplemented with 1% FCS and 0.01% NaN3, to remove all free beads. After washing, cells were scraped and resuspended in FACS buffer (PBS supplemented with 0.5% BSA). Samples were measured with the BD FACSCanto II flow cytometer (BD Biosciences, San Jose, CA, USA) and analyzed with FlowJo software (Ashland, OR, USA). Mean fluorescence intensity (MFI), corrected for non-specific adherence, was used as an indicator for the number of beads taken up.
While the above-described functions of cathelicidins are well-known, relatively little is known about the influence of cathelicidins on phagocytosis. Therefore, RAW264.7 cells were incubated with fluorescent beads to study the effect of cathelicidins on phagocytosis. The uptake was corrected for fluorescence measured after incubation on ice instead of 37 °C, which inhibits the active process of phagocytosis. After 30 minutes, 90% of the RAW264.7 cells took up latex beads (Fig. 4A). Histograms exemplify changes in bead phagocytosis with different concentrations of K9CATH (Fig. 4B), eCATH-2 (Fig. 4C) and chCATH-3 (Fig. 4D). Effect of all cathelicidins are depicted by the average mean fluorescence intensity (MFI) in Fig. 4E.
Figure 4 Effects of cathelicidins on phagocytosis by RAW264.7 cells. RAW264.7 cells were incubated with cathelicidins (0.31 μM, 1.25 μM, and 5 μM) and red fluorescent latex beads (10 beads to 1 cell) at 37 °C (energy dependent uptake) or on ice (non-specific adherence) for 30 minutes. Histograms show control (no peptide present) bead uptake at 37 °C (gray, filled) and 0 °C (black line) (A), or uptake in presence of different concentrations of indicated cathelicidins (B–D); 0 μM (red, filled), 0.31 μM (black line), 1.25 μM (green line) or 5 μM (blue line). Uptake was quantified by determining the MFI after correction for 0 °C control (E). Results are presented as average +/− SEM (N = 3). Statistical differences were determined by Two-way ANOVA with Bonferroni post-hoc test.

[4] = tested on: CCL2 (MCP-1) release by RAW264.7 cells; test: Cathelicidin induced CCL2 release; assay type: cell-based, murine; conditions: 24 h, peptide 0.08-20 μM
Experimental: as §1
ELISA Duoset kits for mouse TNFα, CCL5, CXCL10 and IL-10 were obtained from R&D systems (Minneapolis, MN, USA) and ELISAs were performed according to the manufacturer’s protocol. Samples were stored at −20 °C until analysis and, if needed, diluted in 1% BSA in PBS, pH 7.4. Absorbance at 450 nm was determined in a FLUOstar Omega microplate reader (BMG Labtech GmbH) and corrected for absorbance at 570 nm. Results were analyzed with MARS data analysis software (BMG Labtech GmbH).
Since cathelicidins have membrane-perturbing properties which might affect the host’s cell membrane, first the possible cytotoxicity of the cathelicidins to RAW264.7 cells was assessed. […] Next, RAW264.7 cells were stimulated with the cathelicidins at various concentrations for 2 h and 24 h, after which release of CCL2 (MCP-1), CCL5 (RANTES), CXCL10 (IP-10), TNFα and IL-10 was determined.
Figure 2 Cathelicidin induced chemokine and cytokine release by RAW264.7 cells. RAW264.7 cells were incubated for 2 h and 24 h with cathelicidins (0.08 μM, 0.31 μM, 1.25 μM, 5 μM, and 20 μM), after which the supernatants were harvested and tested for release of CCL2 at 2 h (A) and 24 h (B), CCL5 at 24 h (C) and CXCL10 at 24 h (D). Dotted line represents average cytokine release of control samples. Results are presented as average +/− SEM (N = 3). Statistical differences were determined by Two-way ANOVA with Bonferroni post-hoc test.

[5] = tested on: E. coli and MRSA; assay type: cell-based; conditions: run of Fig. 1A; bacterium and medium not given
Experimental: In order to compare our Cmax with MBC values, wells without visible bacterial growth were plated out on TSA plates and incubated o/n at 37 °C to determine the presence of viable bacteria.
The antimicrobial capacities were tested under the same conditions and expressed as growth delay instead of the more classical MIC/MBC determination using broth dilution assays. […] The fact that DMEM medium makes S. aureus susceptible to PR-39 is surprising since this peptide is thought to require active uptake by the SbmA transporter, only present in Gram – bacteria. The results obtained in this work, might indicate that the peptide possibly switches to a different mechanism of action with initially a bacteriostatic effect, but more thorough studies are required to elucidate the details of these initial observations.

[6] = 20 μM peptide, given if no Cmax was reached, N = 4
[7] = MHB, 20 μM peptide, given if no Cmax was reached, N = 4

Compound	Max: hours growth delay with 20 μM cathelicidin, E. coli, DMEM [1, 6] [h]	Activity against E. coli in MHB, in words ([1]; MHB, peptide up to 20 μM)	Max: hours growth delay with 20 μM cathelicidin, E. coli, MHB ([1]; MHB, 20 μM peptide, given if no Cmax was reached, time to OD 0.6 vs control, N = 4) [h]	Max: hours growth delay with 20 μM cathelicidin, MRSA, DMEM ([2]; DMEM + FCS, 20 μM peptide, given if no Cmax was reached, N = 4) [h]	Max: hours growth delay with 20 μM cathelicidin, MRSA, MHB [2, 7] [h]	Effect on bead uptake (phagocytosis), in words [3]	Cmax: cathelicidin concentration resulting in a delay in bacterial growth with minimal 10 hours, E. coli, MHB ([1]; MHB, 1 × 10^6 CFU/ml, peptide 0.31-20 μM, 16 h, 37 °C, 200 RPM, time to OD 0.6 vs control, — = no Cmax reached up to 20 μM, N = 4) [µM]	Summary class, antimicrobial activity E. coli MHB ([1]; MHB, − is not defined in the key)	Cmax, MRSA, DMEM ([2]; DMEM + FCS, 1 × 10^6 CFU/ml, peptide 0.31-20 μM, 16 h, 37 °C, — = no Cmax reached up to 20 μM, N = 4) [µM]	Summary class, antimicrobial activity S. aureus DMEM ([2]; DMEM + FCS, MRSA, − is not defined in the key)	Summary class, antimicrobial activity S. aureus MHB ([2]; MHB, MRSA, − is not defined in the key)	Effect on CCL2 secretion after 24 h stimulation, in words [4]	MBC [5] [µM]
KRFHSVGSLIQRHQQMIRDKSEATRHGIRIITRPKLLLAS [eCATH-3, equine CATH-3, 40 residues, charge +10]	1.5	no or very little activity	0.0	1.5	0.0	did not affect bead uptake	–	–	–	–	–	–	–
KRFGRLAKSFLRMRILLPRRKILLAS [eCATH-1, equine CATH-1, 26 residues, charge +9]	3.5	–	–	–	7.5	did not affect bead uptake	20	+++ (+++ = Cmax at ≤20 μM)	20	+++ (+++ = Cmax at ≤20 μM)	+ (+ = >4 hours inhibition at 20 μM)	non-significant	–
CC[C@H](C)[C@H](NC(=O)[C@H](CCCCN)NC(=O)[C@H](CCC(=O)O)NC(=O)[C@H](CCCCN)NC(=O)[C@H](CO)NC(=O)[C@H](CCCCN)NC(=O)[C@H](CCCNC(=N)N)NC(=O)[C@H](Cc1ccccc1)NC(=O)[C@H](Cc1ccccc1)NC(=O)[C@H](CC(=O)O)NC(=O)CNC(=O)[C@H](CC(C)C)NC(=O)[C@@H](N)CC(C)C)C(=O)NCC(=O)N[C@@H](CCCCN)C(=O)N[C@@H](CCC(=O)O)C(=O)N[C@@H](Cc1ccccc1)C(=O)N[C@@H](CCCCN)C(=O)N[C@@H](CCCNC(=N)N)C(=O)N[C@H](C(=O)N[C@H](C(=O)N[C@@H](CCC(N)=O)C(=O)N[C@@H](CCCNC(=N)N)C(=O)N[C@H](C(=O)N[C@@H](CCCCN)C(=O)N[C@@H](CC(=O)O)C(=O)N[C@@H](Cc1ccccc1)C(=O)N[C@@H](CC(C)C)C(=O)N[C@@H](CCCNC(=N)N)C(=O)N[C@@H](CC(N)=O)C(=O)N[C@@H](CC(C)C)C(=O)N[C@H](C(=O)N1CCC[C@H]1C(=O)N[C@@H](CCCNC(=N)N)C(=O)N[C@H](C(=O)N[C@@H](CCC(=O)O)C(=O)N[C@@H](CO)C(=O)O)[C@@H](C)O)C(C)C)[C@@H](C)CC)C(C)C)[C@@H](C)CC [LL-37]	–	–	–	–	–	–	–	–	–	–	–	–	> 20
